We go through six molecules from patent US6469055B2, “Compositions and methods for treatment of neurological disorders and neurodegenerative diseases” (Massachusetts Institute of Technology, priority 1996, dated 2002).

For assay [1], the system named is glial fibrillary acidic protein (GFAP). Briefly: GFAP protein in cultured astrocytes, Western blot. It is filed as cell-based, rat.
Description: To detect cell-associated protein (APP or GFAP), astrocytes from 35 mm dishes are scraped in lysis buffer (60 mM Tris/HCl, 4% SDS, 20% glycerol, 1 mM dithiothreitol), ultrasonicated and boiled for 5 min. […] Bromphenol blue (0.1%) is added to each sample and equal amounts of protein (˜75 mg/lane) are loaded on 10% SDS-polyacrylamide gels.
(§3) The amount of media or cell protein loaded for sodium dodecyl sulfate-polyacrylamide gel electrophoresis (10-20% SDS PAGE; Bio-Rad) was normalized for the amount of protein per sample. […] After 2×10 min rinses in TBST, the membranes were incubated in TBST containing an appropriate antibody. Monoclonal antibodies 22C11 and GFAP (both from Boehringer-Mannheim) were used to detect the N-terminus of APP and glial fibrillary acidic protein respectively; antisera R37 and R98 (gifts of Dr. F. Kametani, Tokyo Institute of Psychiatry) were used to detected the C-terminus and KPI motifs of APP respectively; antiserum C8 (gift of Dr. D. Selkoe, Women's Hospital, Harvard Medical School, Cambridge, Mass.) was used to detect the C-terminus of APP.
After an overnight incubation, membranes were rinsed in TBST before being treated for 1h with a peroxidase-linked secondary antibody. After several rinses in TBST, protein bands were visualized on Kodak X-AR films by an enhanced chemiluminescence method (Amersham). […]
For assay [2], the system named is secreted APP (APPs). As to the kind of experiment: APPs secretion into the media of cultured cortical astrocytes, Western blot. It is filed as cell-based, rat. The procedure: Astrocytes are isolated from cortices from postnatal rats. […] Media are changed twice weekly.
To detect secreted APP, culture media was collected after drug treatments and phenylmethylsulfonyl fluoride was added to a final concentration of 2 mM. The media samples were then applied to Sephadex PD-10 desalting columns (Pharmacia) and eluted with distilled water. Column eluates were frozen and dried by vacuum centrifugation. The lyophilized proteins were reconstituted in 25 μL water followed by 25 μL of 2X Laemmli gel loading buffer, and boiled for 5 min.
(§1) Assays of PI hydrolysis are conducted as previously reported. Also, measurements of APPs are conducted as previously reported.

For assay [3], the system named is APP mRNA. Briefly: APP mRNA, Northern blot, cultured cortical astrocytes.
Description: Pharmacological manipulations are performed in serum-free media on 7-14 DIV confluent astrocytes.
Total RNA from astrocytes grown on 100 mm dishes is extracted by the acid guanidium thiocyanate-phenol-chloroform method. […] In brief, the medium was aspirated and the cells were scraped in 1 mL of TRI Reagent. After incubation for 15 min at room temperature, 0.2 ml chloroform was added, mixed vigorously with TRI Reagent and the mixture was stored for another 15 min at room temperature. After centrifugation at 12,000 g for 15 min, 0.5 ml isopropanol was added to the aqueous phase of the mixture to precipitate RNA. The RNA pellet collected by centrifugation (12,000 g, 15 min at 4° C.) was washed with 70% ethanol. once and solubilized in an appropriate amount of Formazol (Molecular Research Center, Cincinnati, Ohio). […] RNA was blotted onto Hybond polyvinyl membranes by overnight capillary transfer and fixed onto the membranes by UV light illumination. […] Membranes were dried and exposed to Kodak X-ray film for 24-48 h with an Amersham enhancer sheet. The relative amounts of mRNA obtained by hybridization were estimated using densitometric analysis of autoradiographs. The levels of APP mRNA were normalized to the amounts of G3PDH mRNA and expressed as a ratio to the levels of untreated, control cells.
For a further assay, the system named is cellular cAMP levels. As to the kind of experiment: cAMP assay in cultured astrocytes. It is filed as cell-based, rat. The procedure: In brief, after aspirating the medium and rinsing twice with 1 ml ice cold PBS, the cells were scraped in 0.8 ml ice cold ethanol and sonicated. […] After resuspension in 120 μl Tris/EDTA buffer, two duplicate samples of 50 μl each were mixed with the binding protein, [8-^3H] adenosine 3′, 5′-cyclic phosphate tracer and incubated at 2-4° C. for 2 h. A charcoal suspension (100 μl) was added to the samples before centrifugation and 200 μl of the supernatant were removed for. scintillation counting. The amount of cyclic AMP (pmol/mg protein) was estimated by comparing to known standards, and normalized to the amounts of whole cell protein as determined by the bicinchoninic acid assay (Sigma).

The test system of another assay is APP synthesis. As to the kind of experiment: APP synthesis (APP mRNA and holoprotein) in cultured cortical astrocytes. It is filed as cell-based, rat. As to conditions: PG E2 10 μM, 6 or 12 h.
Assay [4] deals with APP holoprotein. Briefly: Cell-associated APP (APP holoprotein), Western blot, cultured cortical astrocytes.
Description: Astrocytes are isolated from cortices from postnatal rats. […] In brief, dissected cortices were dissociated by trypsinization and trituration through a flame-polished Pasteur pipette. Cells were plated onto poly-L-lysine coated 35- or 100 mm culture dishes at densities of about 10-25 cells/mm^2. […] Media are changed twice weekly. […] Pharmacological manipulations are performed in serum-free media on 7-14 DIV confluent astrocytes.
To detect cell-associated protein (APP or GFAP), astrocytes from 35 mm dishes are scraped in lysis buffer (60 mM Tris/HCl, 4% SDS, 20% glycerol, 1 mM dithiothreitol), ultrasonicated and boiled for 5 min. The total amount of cell protein per dish, estimated using the bicinchoninic acid assay, is not altered by pharmacological treatments. Bromphenol blue (0.1%) is added to each sample and equal amounts of protein (˜75 mg/lane) are loaded on 10% SDS-polyacrylamide gels.
as §3
After an overnight incubation, membranes were rinsed in TBST before being treated for 1h with a peroxidase-linked secondary antibody. After several rinses in TBST, protein bands were visualized on Kodak X-AR films by an enhanced chemiluminescence method (Amersham). Optical densities of the protein bands were quantitated by laser scanning densitometry (LKB, Bromma, Sweden), and normalized to the densities of those bands generated under control conditions.
For the next assay, the system named is astrocytes. Briefly: Process formation of cultured astrocytes. It is filed as cell-based, rat.
The test system of assay [5] is APP holoprotein. Briefly: APP holoprotein in cultured neurons. It is filed as cell-based. As to conditions: DFP. The source says:
(§2) Treatment of cultured astroyctes with DFU (A) or of cultured neurons with DFP (B) promotes APPs secretion and decreases the levels of amyloidogenic APP holoprotein in cultured.

The test system of assay [6] is secreted APP (APPs). Briefly: APPs secretion from cultured neurons. The note with it: DFP. It is filed as cell-based.
Description: as §2

The conditions of assay [7]: 100-150 mg indomethacin, 6 months, mild or moderately impaired Alzheimer's disease patients; cited from earlier work.
For assay [8], the system named is APP mRNA. The note with it: dibutyryl cAMP in serum-containing medium, rat glioma cells; cited from earlier work.
In a further assay the test system is PI hydrolysis. Briefly: PI hydrolysis in cultured astrocytes. It is filed as cell-based, rat. As to conditions: NE 50 μM, 1 h. The procedure: as §1
Another assay has as its system serotonin release. As to the kind of experiment: Serotonin release in the striatum by microdialysis. It is filed as in vivo, rat. As to conditions: rats, chronic treatment with PCA.
Assay [9] deals with APP holoprotein. Briefly: Brain APP holoprotein in rats injected with p-chloroamphetamine (PCA) with or without aspirin. As to conditions: rats injected with PCA; striatum or hippocampus. It is filed as in vivo, rat. An excerpt: Neuronal injury can stimulate prostaglandin production., and thereby stimulate APP overexpression. We injected rats with para-chloroamphetamine (PCA), a neurotoxin which causes a loss of serotoninergic terminals in the brain.

The mark [10] stands for this setting: DFU or DFP 10^-9-10^-3 M, 1 h, cultured astrocytes.

Entries after “also recorded” stand apart in the source; their conditions may differ.

With `CCCCC[C@H](O)/C=C/[C@H]1[C@H](O)CC(=O)[C@@H]1C/C=C\CCCC(=O)O` [PG E2, prostaglandin E2], the “levels of GFAP” value in [1] (PG E2 treatment) is “increased”. Moreover, the “APP secreted in the media” value with secreted APP (APPs) [2] (PG E2 1, 10 or 100 μM, 24 h, mAb 22C11, R37 or C8) was “increased”. For the same molecule, in the assay with secreted APP (APPs) [2] (PG E2, 24 h, antisera C8), the “APP holoprotein (~130 kD) in the media” value is recorded as “increased amounts”. The “effect on APP mRNA” value in the assay with APP mRNA [3] (PG E2 0.1 μM) is recorded as “did not significantly alter; also recorded: not 0.1 μM PG E2”. Besides, in the assay on APP mRNA [3] (PG E2 1, 10 or 100 μM, 24 h), the “astrocytic APP mRNA relative to untreated cells” value was “significantly increased; also recorded: stimulated increases”. The “cellular cAMP levels compared to untreated cells” value in the assay with cellular cAMP levels (1 μg PG E2 (so in the source)) is 27 fold; in the assay with cellular cAMP levels (10 μg PG E2 (so in the source)), 106 fold; in the assay on cellular cAMP levels (100 μg PG E2 (so in the source)) it was 227 fold. Also, in the assay on cellular cAMP levels (PG E2 0.1 μM), the cAMP production entry was “did not stimulate”. The “cAMP versus PG E2 concentration” value in the assay with cellular cAMP levels (PG E2 1, 10 or 100 μM) is “Concentration-dependent elevations”. In addition, the “effect on APP synthesis, shorter treatment” value with APP synthesis is on record as “did not reliably increase”. Besides, the “effect on APP holoprotein” value in the assay with APP holoprotein [4] (PG E2 0.1 μM) is on record as “did not significantly alter; also recorded: not 0.1 μM PG E2”; in the assay on APP holoprotein [4] (PG E2 1, 10 or 100 μM, 24 h), “stimulated increases”. In addition, the “cellular APP holoprotein, of untreated control cells” value with APP holoprotein [4] (PG E2 1 μM, 24 h) was found to be 1.4 fold; in the assay on APP holoprotein [4] (PG E2 10 μM, 24 h), 1.9 fold; in the assay with APP holoprotein [4] (PG E2 100 μM, 24 h), 2.3 fold. The “KPI-containing APP isoforms” value in the assay on APP holoprotein [4] (PG E2 treatment, antiserum R98) is “increases”. The “process formation in astrocytes” value with astrocytes is “induced”.

As for `CC(C)OC1=C(c2ccc(S(C)(=O)=O)cc2)C(C)(C)OC1=O` [DFP, 5,5-dimethyl-3-isopropyloxy-4-(4′-methylsulfonylphenyl)-2(5H)-furanone], in the assay on APP holoprotein [5], the “levels of amyloidogenic APP holoprotein” value is “decreases”. Also, the APPs secretion result in the assay with secreted APP (APPs) [6] is “promotes”. Further, in the assay on secreted APP (APPs) [2] (setting [10]), the “secretion of soluble APPs” value is recorded as “increases”. In the assay with APP holoprotein [4] (setting [10]), the “levels of cellular APP holoprotein” value was “decreases”.

Consider `COc1ccc2c(c1)c(CC(=O)O)c(C)n2C(=O)c1ccc(Cl)cc1` [indomethacin], for which, in [7], the “cognitive decline versus placebo, battery of cognitive tests” value is given as “appeared to protect”.

For the molecule `CCCC(=O)Nc1ncnc2c1ncn2[C@@H]1O[C@@H]2COP(=O)(O)O[C@H]2[C@H]1OC(=O)CCC` [dibutyryl cAMP], the “APP mRNA” value with APP mRNA [8] is “increased”.

For `NC[C@H](O)c1ccc(O)c(O)c1` [NE, norepinephrine], the “glial fibrillary acidic protein immunoreactivity” value in [1] (8Br-cAMP or NE) is on record as “increase”. The “APP mRNA levels versus untreated cells” value with APP mRNA [3] (24 h, NE 50 or 100 μM, isoproterenol 50 μM, Northern blot) was “about 1.7 fold”. Also, in the assay with APP mRNA [3] (NE 50-400 μM), the “APP mRNA level versus NE concentration” value is on record as “do not increase linearly”. Further, the “APP mRNA, of untreated cells” value with APP mRNA [3] (NE 50 or 100 μM, isoproterenol 50 μM) was found to be 180%. Besides, in the assay with cellular cAMP levels (NE 50 μM, 1 h), the cAMP formation result is listed as “significantly increased”. For the same molecule, the PI hydrolysis entry in the assay with PI hydrolysis is on record as “significantly increased”. The “APP holoprotein in cell lysates, of that seen in untreated cells” value in the assay with APP holoprotein [4] (8Br-cAMP or NE, antibodies 22C11 and R37) amounted to 200%. In the assay with APP holoprotein [4] (NE 50 μM, about 24 h, Western blot), the “amount of cell-associated APP holoprotein relative to untreated cells” value is around 1.7 fold. For the same molecule, in the assay with APP holoprotein [4] (NE 50 μM, mAb22C11, p<0.05), the “cell-associated APP relative to untreated control cells” value was “significantly more”. Moreover, the “APP holoprotein level versus NE concentration” value with APP holoprotein [4] (NE 50-400 μM) was “do not increase linearly”. Also, the “process formation in astrocytes” value in the assay on astrocytes is reported as “increase”.

Consider `CC(N)Cc1ccc(Cl)cc1` (centres unmarked) [PCA, para-chloroamphetamine], for which the “serotonin release in the striatum” value in the assay on serotonin release is on record as “compromised”. Also, in the assay with APP holoprotein [9], the “KPI-containing APP isoforms in brain tissue” value is listed as “increased” and the “brain APP holoprotein levels” value is “increased; also recorded: significant increases”.
